Values quoted from earlier work in patent US20050171434A1, “Chromophore probes for optical imaging” (VisEn Medical, Inc., priority 2002, published 2005).

In the case of Cy5.5, the λem (emission wavelength) is listed as 694 nm and the λex (excitation wavelength) is listed as 675 nm.
